Here are results for 17 molecules from PubChem BioAssay (NCI).

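48-hour exposure; five concentrations; linearly interpolated endpoints. TGI is the concentration that stops growth completely.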 Where only a bound is given, the exact number is not on record here.

Among the test systems are MOLT-4 leukemia; IGROV1 ovarian; NCI-H522 lung; HCT-116 colon; HT29 colon; UO-31 renal; U251 CNS; HS 578T breast; LOX IMVI melanoma; SNB-75 CNS.
Holding throughout (assay): inhibition of tumour cell growth, NCI panel, 48 h

As to `COc1cc2c(C)cc(O)cc2c2cc(O)c(C)cc12`, the TGI in the assay with MOLT-4 leukemia worked out at 25.1 µM; in the assay on IGROV1 ovarian, 29 µM; in the assay with NCI-H522 lung, 27.3 µM; in the assay with HCT-116 colon, 20.7 µM; in the assay on HT29 colon, 45.8 µM; in the assay on UO-31 renal, 19.1 µM. Besides, the TGI amounted to 21.3 µM in the assay on U251 CNS, 53.8 µM in the assay with HS 578T breast and 9.22 µM in the assay on LOX IMVI melanoma.

As for `Cn1ccc(C(=O)NCCN(CCNC(=O)c2ccn(C)c(=O)c2O)CCNC(=O)c2cccc(=O)n2O)c(O)c1=O`, the TGI in the assay with SNB-75 CNS, with IGROV1 ovarian, in the assay on NCI-H522 lung, in the assay on HCT-116 colon, in the assay with HT29 colon and with UO-31 renal was greater than 100 µM each time. Moreover, the TGI in the assay on U251 CNS, with HS 578T breast and with LOX IMVI melanoma was greater than 100 µM in each case.

Regarding `COc1ccc(S(=O)(=O)c2nnc(S(=O)(=O)Cc3ccccc3)s2)cc1`, the TGI was 31.8 µM in the assay on SNB-75 CNS; 27.1 µM in the assay with NCI-H522 lung; 38.1 µM with HCT-116 colon; 43.8 µM in the assay with HT29 colon; 43.4 µM with UO-31 renal; 52.3 µM with U251 CNS. This molecule showed a TGI in the assay with HS 578T breast of 43 µM.

As for `N#Cc1c(N)nc2n[nH]c(N)c2c1-c1ccc(Cl)cc1`, the TGI is greater than 100 µM in the assay with MOLT-4 leukemia; 7.39 µM in the assay with IGROV1 ovarian; 9.11 µM in the assay with NCI-H522 lung; greater than 100 µM in the assay with HCT-116 colon; greater than 58.6 µM in the assay on HT29 colon; 19.9 µM in the assay on UO-31 renal. The results for the TGI with U251 CNS, in the assay with HS 578T breast and in the assay on LOX IMVI melanoma were greater than 55 µM, 8.64 µM and 16.9 µM, respectively.

As for `Cn1c(=O)n(C2(C)C[Se]C2)c2ccccc21`, the TGI in the assay with SNB-75 CNS, in the assay with MOLT-4 leukemia, in the assay on IGROV1 ovarian, in the assay with NCI-H522 lung, in the assay with HCT-116 colon and with HT29 colon was greater than 100 µM each time. The TGI in the assay with UO-31 renal, with U251 CNS and with LOX IMVI melanoma was greater than 100 µM in each case.

With `CC1CCC(C(C)C)C(OC(=O)NCn2cc(-c3ccccc3)nn2)C1` (configuration not stated), the TGI in the assay on SNB-75 CNS was 86 µM; in the assay on IGROV1 ovarian, greater than 100 µM; in the assay with NCI-H522 lung it was greater than 100 µM; with HCT-116 colon, greater than 100 µM; in the assay on HT29 colon, greater than 100 µM; in the assay with U251 CNS, greater than 100 µM. The molecule further returned a TGI with LOX IMVI melanoma greater than 100 µM.

For `O=C(/C=C/c1cc2ccccc2o1)N1CCN(c2ccccn2)CC1`, the TGI in the assay with MOLT-4 leukemia, with IGROV1 ovarian, in the assay with NCI-H522 lung, with HCT-116 colon, in the assay on HT29 colon and in the assay on UO-31 renal was greater than 100 µM in each case. In addition, the TGI in the assay with U251 CNS, with HS 578T breast and in the assay with LOX IMVI melanoma was greater than 100 µM each time.

In the case of `CC(C)(C)OC(=O)[C@H]1CCC(=S)N1Cc1ccccc1`, the TGI in the assay on SNB-75 CNS, in the assay with MOLT-4 leukemia, in the assay with IGROV1 ovarian, in the assay on NCI-H522 lung, with HCT-116 colon and in the assay with UO-31 renal was greater than 100 µM each time. The TGI in the assay with U251 CNS and with LOX IMVI melanoma was greater than 100 µM each time.

In the case of `O=[N+]([O-])c1ccc2c(c1)C1=C(CO2)Cc2ccccc2O1`, the TGI with SNB-75 CNS is greater than 100 µM; in the assay with IGROV1 ovarian it was 55.4 µM; with NCI-H522 lung, 54.5 µM; in the assay on HCT-116 colon, 30 µM; in the assay with HT29 colon it was 88 µM; with UO-31 renal it was 28.1 µM. Also, the TGI with U251 CNS is 36.2 µM; in the assay on LOX IMVI melanoma, 30.2 µM.

`O=C(Nc1nc(C23CC4CC(CC(C4)C2)C3)cs1)c1cc2ccc(O)cc2oc1=O`: the TGI came out at 38.1 µM with MOLT-4 leukemia; 33 µM in the assay with IGROV1 ovarian; 45.6 µM with NCI-H522 lung; 25.6 µM in the assay on HCT-116 colon; 27.4 µM with HT29 colon; 31.2 µM with UO-31 renal. The TGI is 28.7 µM with U251 CNS, 37.8 µM in the assay on HS 578T breast and 22.2 µM in the assay on LOX IMVI melanoma.

As for `O=C(O)[C@@H]1CCS(=O)(=O)N1`, the TGI in the assay on MOLT-4 leukemia, in the assay with IGROV1 ovarian, in the assay on NCI-H522 lung, in the assay on HCT-116 colon, in the assay with HT29 colon and with LOX IMVI melanoma was greater than 100 µM in each case.

Turning to `NNC(=O)c1n[nH]nc1C(=O)NN`, the TGI in the assay on MOLT-4 leukemia was greater than 100 µM; in the assay on HCT-116 colon, greater than 100 µM; in the assay on HT29 colon, 26.3 µM; with UO-31 renal, 41.8 µM; in the assay with U251 CNS, greater than 100 µM.

With `Oc1[nH]c2ccccc2c1N=NC(=S)Nc1cccc(Cl)c1`, the TGI is 10.8 µM in the assay on MOLT-4 leukemia; 89 µM in the assay with IGROV1 ovarian; 77.6 µM with NCI-H522 lung; 17.3 µM with HCT-116 colon; 28.4 µM with HT29 colon; greater than 100 µM with UO-31 renal. In addition, the TGI is 89.1 µM in the assay with U251 CNS, greater than 100 µM with HS 578T breast and 33.4 µM in the assay on LOX IMVI melanoma.

In the case of `CN(C)C1(N(C)C)Oc2c(c(=O)n(C)c(=O)n2C)C(c2ccccc2)C1(F)F` (configuration not stated), the TGI with SNB-75 CNS, in the assay with MOLT-4 leukemia, in the assay on HCT-116 colon, with UO-31 renal, in the assay with U251 CNS and in the assay with LOX IMVI melanoma was greater than 100 µM throughout.

In the case of `c1ccc(CCNc2ccccn2)nc1`, the TGI in the assay on IGROV1 ovarian, in the assay with NCI-H522 lung, in the assay with HCT-116 colon, with HT29 colon, with UO-31 renal and in the assay with U251 CNS was greater than 100 µM in each case. Further, the TGI in the assay on HS 578T breast and in the assay with LOX IMVI melanoma was greater than 100 µM in each case.

Take `CCCCNC(=S)Nc1nc(C(=O)NNC(=S)Nc2ccccc2)cs1`: the TGI in the assay with SNB-75 CNS is 91.1 µM; in the assay on MOLT-4 leukemia it was greater than 100 µM; in the assay on HCT-116 colon it was greater than 100 µM; in the assay on HT29 colon, greater than 100 µM; with UO-31 renal, greater than 100 µM; with U251 CNS, 48.3 µM.

`Nc1ncnc2c1ncn2[C@@H]1C[C@@H]1CO`: the TGI in the assay on MOLT-4 leukemia, in the assay with NCI-H522 lung, in the assay on HCT-116 colon, in the assay on HT29 colon, in the assay on UO-31 renal and in the assay with U251 CNS was greater than 100 µM throughout. Further, the TGI in the assay with HS 578T breast and with LOX IMVI melanoma was greater than 100 µM in each case.
